SMILES strings stand for the structures.

For experiment [1], the system named is acetic acid induced writhing in ICR mice. Nature of the experiment: acetic acid induced writhing pain model in ICR mice. The following applies: for writhing frequency: 30 mg/kg single oral administration 1 h before 0.6% acetic acid i.p., 20 minutes observation, compared with G1 model group, FIG. 6; for efficacy compared with aspirin: 30 mg/kg single oral administration vs 200 mpk of aspirin. The class given is in vivo, mouse. The text has this:
The pharmacological effect of compounds prepared in some examples of the present invention on an acetic acid induced writhing pain model in ICR mice was investigated.
The acetic acid writhing pain model in mice is a classic pharmacological model for evaluating the treatment of drugs for visceral pain and inflammatory pain.
• Animal species and strains: ICR mice • Medical treatment history: None • Gender, age, and weight: Male, 8 weeks old, 20-25 g • Breeder/Supplier: Shanghai SLAC Laboratory Animal Co., Ltd • Adaptation period: no less than 7 days • Room: Regular level room • Room temperature: 19-26° C. • Relative humidity: 40-70% • Lighting cycle: fluorescent lighting, 12 hours of illumination (08:00-20:00) and 12 hours of no illumination • Animal feeding: 5 animals/cage divided by group • Food: Free intake (irradiated feed, Shanghai SLAC Laboratory Animal Co., Ltd, China) • Water: Free intake (Mol Ultrapure Water System filtered municipal tap water)
A total of 70 mice were introduced from Shanghai SLAC Laboratory Animal Co., Ltd. The animals were SPF grade and purchased at approximately 7 weeks old.
Animals are randomly assigned to each treatment group according to the weight using the BioBook randomization function to achieve an approximate average weight for each group and reduce inter group bias.
3.1 Within 12 hours before use, a glacial acetic acid solution with a mass volume fraction of 0.6% was prepared with 0.9% physiological saline.
3.2. Administration treatment: G1 group animals were orally administered 0.9% physiological saline; G2-G6 were specifically administered the compounds of the present invention referred to the specific dosage regimen in Table 9.
3.3. Modeling treatment: G1 group animals were administered 0.9% physiological saline by gavage, and after 1 hour, 0.6% glacial acetic acid was injected intraperitoneally to induce pain response (10 ml/kg). G2-G8 group animals were injected intraperitoneally with 0.6% glacial acetic acid to induce pain response (10 ml/kg) after different groups were administered according to the regimen designed in Table 9.
3.4 Measurement: The weight of all mice was recorded before modeling treatment. A torsion test was recorded immediately after acetic acid treatment. The behavioral observation period lasted for 20 minutes. Writhes were counted by a single preson (one standard writhe includes abdominal muscle contraction, muscle extension, and hind limb extension). After testing, the animals were euthanized with CO2.
3.5 Experimental observation: Animal health observation and general response to drug treatment were conducted daily. All abnormal health and behavioral behaviors were recorded.
The experimental data was calculated as mean±standard error. Statistical analysis was performed using Graphpad Prism, SPSS, or Sigmaplot software. The specific data is presented in the form of graphs. P<0.05 is considered to have statistical differences.

Another experiment concerns the target T1, mTRPA1 (Mus musculus, UniProt Q8BLA8).
T1 construct: expressed in transfected cells
Nature of the experiment: IonWorks Barracuda (IWB) automated patch clamp, TRPA1 inhibitory activity. Format: cell-based. Conditions: HEK293 cells stably expressing mTRPA1, current induced by AITC, amplitude at +100 mV; read-out: IC50 (inhibition activity on TRPA1). The method, boiled down: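 HEK293 cells stably expressing mouse TRPA1, perforated-patch whole-cell recording (amphotericin B) on IonWorks Barracuda; holding 0 mV, −100 to +100 mV ramp over 300 ms every 10 s. Current evoked by 300 µM AITC, leak-subtracted, amplitude taken at +100 mV; IC50 from fitted dose-effect curves, HC030031 as plate reference.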

T1 sequence (Q8BLA8 whole entry): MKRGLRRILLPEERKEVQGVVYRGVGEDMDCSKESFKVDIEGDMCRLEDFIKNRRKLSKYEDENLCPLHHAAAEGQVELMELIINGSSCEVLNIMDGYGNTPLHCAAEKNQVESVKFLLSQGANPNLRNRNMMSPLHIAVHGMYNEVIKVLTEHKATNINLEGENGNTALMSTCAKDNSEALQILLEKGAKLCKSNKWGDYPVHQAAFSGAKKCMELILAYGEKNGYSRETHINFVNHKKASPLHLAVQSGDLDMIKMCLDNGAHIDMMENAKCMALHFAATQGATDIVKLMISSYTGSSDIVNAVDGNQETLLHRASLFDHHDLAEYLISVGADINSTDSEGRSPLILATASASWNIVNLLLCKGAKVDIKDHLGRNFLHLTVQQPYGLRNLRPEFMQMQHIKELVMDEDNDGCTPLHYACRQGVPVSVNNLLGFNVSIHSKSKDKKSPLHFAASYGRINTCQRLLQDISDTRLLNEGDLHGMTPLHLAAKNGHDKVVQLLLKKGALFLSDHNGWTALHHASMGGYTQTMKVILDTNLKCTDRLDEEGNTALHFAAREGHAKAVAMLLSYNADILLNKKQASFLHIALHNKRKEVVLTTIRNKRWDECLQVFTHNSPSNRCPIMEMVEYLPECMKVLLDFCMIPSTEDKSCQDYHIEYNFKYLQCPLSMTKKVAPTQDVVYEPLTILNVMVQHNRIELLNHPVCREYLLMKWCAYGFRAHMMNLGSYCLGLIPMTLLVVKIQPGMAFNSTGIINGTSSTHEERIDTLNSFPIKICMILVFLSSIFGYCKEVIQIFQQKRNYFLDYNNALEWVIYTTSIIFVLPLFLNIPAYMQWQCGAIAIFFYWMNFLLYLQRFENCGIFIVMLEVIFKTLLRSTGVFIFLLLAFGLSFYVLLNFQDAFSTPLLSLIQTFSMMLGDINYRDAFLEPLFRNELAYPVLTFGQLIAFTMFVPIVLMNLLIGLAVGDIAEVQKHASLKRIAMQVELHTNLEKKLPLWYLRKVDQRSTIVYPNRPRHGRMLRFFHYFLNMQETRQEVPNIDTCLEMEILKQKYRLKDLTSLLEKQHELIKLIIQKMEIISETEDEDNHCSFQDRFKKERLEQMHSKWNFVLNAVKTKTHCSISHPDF

Consider `CNCc1ccc(NS(=O)(=O)c2ccsc2)c(-c2ccco2)c1` [IA-30], for which, in experiment [1], the writhing frequency result is reported as “significantly reduce” and the “efficacy compared with aspirin” value is listed as “basically equivalent to that of 200 mpk of aspirin”. At mTRPA1, the IC50 is less than 1000 nM.

Turning to `CNCc1ccc(-c2nccs2)c(NS(=O)(=O)c2ccccc2)c1` [IA-51, N-(5-((methylamino)methyl)-2-(thiazol-2-yl)phenyl)benzenesulfonamide], in experiment [1], the writhing frequency entry is given as “significantly reduce” and the “efficacy compared with aspirin” value was “basically equivalent to that of 200 mpk of aspirin”. In addition, the IC50 on mTRPA1 is less than 1000 nM.

On to `CNCc1ccc(-c2cc[nH]n2)c(NS(=O)(=O)c2ccccc2)c1` [IA-55, N-(5-((methylamino)methyl)-2-(1H-pyrazol-3-yl)phenyl)benzenesulfonamide], for which, in experiment [1], the writhing frequency entry was “significantly reduce” and the “efficacy compared with aspirin” value is reported as “basically equivalent to that of 200 mpk of aspirin”. Besides, the IC50 on mTRPA1 was less than 1000 nM.

Turning to `NCc1ccc(NS(=O)(=O)c2ccsc2)c(-c2ccco2)c1` [ID-5], in experiment [1], the writhing frequency entry is given as “significantly reduce” and the “efficacy compared with aspirin” value is “basically equivalent to that of 200 mpk of aspirin”. Besides, at mTRPA1, the IC50 was less than 1000 nM.
